The text below walks through data of US11198695B2, “Fused ring derivative having MGAT-2 inhibitory activity” (Shionogi & Co., Ltd., priority 2017, dated 2021).

Sequence of recombinant human MGAT2 (Q3SYC2 whole entry): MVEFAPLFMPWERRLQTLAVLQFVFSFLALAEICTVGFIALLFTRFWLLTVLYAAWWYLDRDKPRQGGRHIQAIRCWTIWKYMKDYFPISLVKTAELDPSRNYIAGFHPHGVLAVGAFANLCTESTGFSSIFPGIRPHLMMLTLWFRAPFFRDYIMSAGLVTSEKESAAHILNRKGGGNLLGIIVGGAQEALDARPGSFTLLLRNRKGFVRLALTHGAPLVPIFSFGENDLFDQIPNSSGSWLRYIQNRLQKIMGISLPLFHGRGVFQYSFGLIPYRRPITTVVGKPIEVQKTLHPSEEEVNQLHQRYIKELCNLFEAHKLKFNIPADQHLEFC

The target in the assay is recombinant human MGAT2 (Homo sapiens (Human), UniProt Q3SYC2). Briefly: Measurement of human MGAT2 inhibitory activity. It counts as biochemical. As to conditions: read-out: IC50 (concentration exhibiting 50% enzyme inhibition), Table 53. A digest of the protocol:
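Membrane fraction of Sf9 cells expressing N-terminally Flag-tagged full-length human MGAT2, incubated 1 h at room temperature in 100 mmol/L phosphate pH 7.4 with 2 mmol/L DTT. The substrate solution held 30 μmol/L 2-oleoylglycerol and 10 μmol/L oleoyl-CoA. Diolein product was quantified by RapidFire ESI Q-TOF MS against diolein-d5 internal standard; % inhibition was set relative to with/without-enzyme controls.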
`COc1nccc(NCc2c3c(nn2CCC2CC2)C[C@@]2(CCc4cc(OCC(F)(F)F)ccc42)NC3=O)n1` [II-68]: the IC50 was determined as 420 nM.
Next, `O=C1N[C@]2(CCc3cc(OCC(F)(F)F)ccc32)Cc2nn(CCC3CC3)c(CNc3ccnc(O)n3)c21` [II-69]: 43.9 nM; `CNS(=O)(=O)CC(=O)Nc1c2c(nn1-c1ccc(C#N)cn1)C[C@@]1(CCc3cc(OCC(F)(F)F)ccc31)NC2=O` [II-70]: 3.94 nM.
For `Cc1nocc1-c1ccc2c(c1)CC[C@@]21Cc2nn(CCC3CC3)c(NC(=O)CS(C)(=O)=O)c2C(=O)N1` [II-71], the IC50 was 12.6 nM.
Next, `N#Cc1ccc(-n2nc3c(c2NC(=O)C2CS(=O)(=O)C2)C(=O)N[C@@]2(CCc4cc(OCC(F)(F)F)ccc42)C3)nc1` [II-72]: 3.69 nM; `CS(=O)(=O)CC(=O)Nc1c2c(nn1-c1ccc(C#N)cn1)CC1(CN(c3c(F)cc(C(F)(F)F)cc3F)C1)NC2=O` [II-74]: 2.3 nM.
For `CS(=O)(=O)CC(=O)Nc1c2c(nn1-c1ccc(C#N)cn1)C[C@]1(CCc3cc(Cl)ccc31)NC2=O` [II-75], the IC50 is 3.69 nM.
The result for `CS(=O)(=O)CC(=O)Nc1c2c(nn1CCC1CC1)C[C@@]1(CCc3cc(C4CC4)ccc31)NC2=O` [II-76] reads 6 nM.
The result for `CS(=O)(=O)CC(=O)Nc1c2c(nn1CCC1CC1)C[C@@]1(CCc3cc(OCC(F)F)ccc31)NC2=O` [II-77] reads 5.5 nM.
The result for `CS(=O)(=O)CC(=O)Nc1c2c(nn1-c1ccc(C#N)cn1)CC1(CN(c3nc(C(F)(F)F)cs3)C1)NC2=O` [II-78] reads 45 nM; that for `CS(=O)(=O)CC(=O)Nc1c2c(nn1-c1ccc(C#N)cn1)CC1(CN(c3nc(C(F)(F)F)co3)C1)NC2=O` [II-79], 110 nM.
For `CC(C)c1ccc(N2CC3(Cc4nn(-c5ccc(C#N)cn5)c(NC(=O)CS(C)(=O)=O)c4C(=O)N3)C2)cc1` [II-80], the IC50 is 9.1 nM.
Next, `O=C1N[C@@]2(CCc3cc(OCC(F)(F)F)ccc32)Cc2nn(CCC3CC3)c(NC(=O)[C@H]3CCCS3(=O)=O)c21` [II-81]: 46.6 nM.
Next, `CS(=O)(=O)CC(=O)Nc1c2c(nn1CCC1CC1)C[C@@]1(CCc3cc(OCC4CC(F)(F)C4)ccc31)NC2=O` [II-82]: 2.49 nM; `CS(=O)(=O)CC(=O)Nc1c2c(nn1CCC1CC1)C[C@@]1(CCc3cc(-c4cnn(C(F)(F)F)c4)ccc31)NC2=O` [II-83]: 1.99 nM; `CS(=O)(=O)CC(=O)Nc1c2c(nn1CCCC(F)(F)F)C[C@@]1(NC2=O)c2ccc(OCC(F)(F)F)cc2CC1(F)F` [II-85]: 45.5 nM.
For `Cc1ccc(-n2nc3c(c2NC(=O)CS(C)(=O)=O)C(=O)N[C@@]2(C3)c3ccc(OCC(F)(F)F)cc3CC2(F)F)nc1` [II-86], the IC50 came out at 3.37 nM.
The result for `CS(=O)(=O)CC(=O)Nc1c2c(nn1-c1ccc(C#N)cn1)C[C@]1(NC2=O)c2ccc(OCC(F)(F)F)cc2CC1(F)F` [II-87] reads 2.63 nM.
The result for `CS(=O)(=O)CC(=O)Nc1c2c(nn1-c1ccc(F)c(F)c1)C[C@]1(NC2=O)c2ccc(OCC(F)(F)F)cc2CC1(F)F` [II-88] reads 3.67 nM.
As for `CS(=O)(=O)CC(=O)Nc1c2c(nn1-c1ccc(C#N)cn1)CC1(CN(c3cccc(C(F)(F)F)c3)C1)NC2=O` [II-89], the IC50 stood at 10.8 nM.
Regarding `CS(=O)(=O)CC(=O)Nc1c2c(nn1-c1ccc(C#N)cn1)CC1(CN(c3ccc(C(F)(F)F)nc3)C1)NC2=O` [II-90], the IC50 came out at 40 nM.
For the molecule `N#Cc1ccc(-n2nc3c(c2NC(=O)C2CCS(=O)(=O)C2)C(=O)N[C@@]2(CCc4cc(OCC(F)(F)F)ccc42)C3)nc1` (some centres unmarked) [II-91], the IC50 was found to be 2.79 nM.
The result for `CS(=O)(=O)CC(=O)Nc1c2c(nn1CCC1CC1)C[C@@]1(NC2=O)c2ccc(OCC(F)(F)F)cc2CC1(F)F` [II-92] reads 44.3 nM; that for `C[C@@]1(c2ccc(OCC(F)(F)F)cc2F)Cc2nn(-c3ccc(C#N)cn3)c(NC(=O)CS(C)(=O)=O)c2C(=O)N1` [II-95], 4.29 nM; that for `C[C@@]1(c2ccc(OCC(F)(F)F)cc2F)Cc2nn(-c3ccc(F)c(F)c3)c(NC(=O)CS(C)(=O)=O)c2C(=O)N1` [II-96], 8.88 nM.
Take `CS(=O)(=O)CC(=O)Nc1c2c(nn1CCCOC(F)(F)F)C[C@@]1(NC2=O)c2ccc(OCC(F)(F)F)cc2CC1(F)F` [II-97]: the IC50 is 3.97 nM.
The result for `CS(=O)(=O)CC(=O)Nc1c2c(nn1CCC1CC1)C[C@@]1(CCc3cc(OC4CC4)ccc31)NC2=O` [II-98] reads 7.1 nM; that for `CS(=O)(=O)CC(=O)Nc1c2c(nn1CCC1CC1)C[C@@]1(CCc3cc(OCCOCC(F)F)ccc31)NC2=O` [II-99], 9.59 nM; that for `CS(=O)(=O)CC(=O)Nc1c2c(nn1CCC1CC1)C[C@@]1(CCc3cc(OCCOCC(F)(F)F)ccc31)NC2=O` [II-100], 4.76 nM.
Next, `CS(=O)(=O)CC(=O)Nc1c2c(nn1CCC1CC1)C[C@@]1(CCc3cc(OCCCC(F)(F)F)ccc31)NC2=O` [II-101]: 1.25 nM; `CS(=O)(=O)CC(=O)Nc1c2c(nn1-c1ccc(C#N)cn1)CC1(Cc3cc(F)c(F)cc3C1)NC2=O` [II-102]: 56.3 nM; `CS(=O)(=O)CC(=O)Nc1c2c(nn1-c1ccc(C#N)c(F)c1)C[C@]1(CCc3cc(OCC(F)(F)F)ccc31)NC2=O` [II-104]: 11.5 nM.
The result for `CS(=O)(=O)CC(=O)Nc1c2c(nn1-c1ccc(C3CC3)nn1)C[C@]1(CCc3cc(OCC(F)(F)F)ccc31)NC2=O` [II-105] reads 2.68 nM.
`CS(=O)(=O)CC(=O)Nc1c2c(nn1-c1ccc(C(F)(F)F)nn1)C[C@]1(CCc3cc(OCC(F)(F)F)ccc31)NC2=O` [II-106]: the IC50 was found to be 1.72 nM.
Next, `CS(=O)(=O)CC(=O)Nc1c2c(nn1-c1ccon1)C[C@]1(CCc3cc(OCC(F)(F)F)ccc31)NC2=O` [II-107]: 40.7 nM.
Next, `N#Cc1ccc(-n2nc3c(c2C(=O)NCC2(O)CCC2)C(=O)N[C@@]2(CCc4cc(OCC(F)(F)F)ccc42)C3)nc1` [II-108]: 2.51 nM; `N#Cc1ccc(-n2nc3c(c2C(=O)NCC2(CO)CCCC2)C(=O)N[C@@]2(CCc4cc(OCC(F)(F)F)ccc42)C3)nc1` [II-109]: 23.1 nM.
`N#Cc1ccc(-n2nc3c(c2C(=O)NC2(C#N)CC2)C(=O)N[C@@]2(CCc4cc(OCC(F)(F)F)ccc42)C3)nc1` [II-110]: the IC50 worked out at 30.4 nM.
As to `CS(=O)(=O)CCNC(=O)c1c2c(nn1-c1ccc(C#N)cn1)C[C@]1(CCc3cc(OCC(F)(F)F)ccc31)NC2=O` [II-111], the IC50 was 50.8 nM.
The result for `N#Cc1ccc(-n2nc3c(c2C(=O)NCC2(O)CC2)C(=O)N[C@@]2(CCc4cc(OCC(F)(F)F)ccc42)C3)nc1` [II-112] reads 5.28 nM.
Turning to `N#Cc1ccc(-n2nc3c(c2C(=O)NC2(C#N)CCCCC2)C(=O)N[C@@]2(CCc4cc(OCC(F)(F)F)ccc42)C3)nc1` [II-113], the IC50 came to 8.23 nM.
With `N#Cc1ccc(-n2nc3c(c2C(=O)NCCOC(F)(F)F)C(=O)N[C@@]2(CCc4cc(OCC(F)(F)F)ccc42)C3)nc1` [II-114], the IC50 was 60.3 nM.
The result for `CC(C)(CNC(=O)c1c2c(nn1-c1ccc(C#N)cn1)C[C@]1(CCc3cc(OCC(F)(F)F)ccc31)NC2=O)C(N)=O` [II-115] reads 204 nM.
Next, `N#Cc1ccc(-n2nc3c(c2C(=O)NCC2(CO)CCC2)C(=O)N[C@@]2(CCc4cc(OCC(F)(F)F)ccc42)C3)nc1` [II-116]: 3.96 nM.
